Data on 1 compound can be found in patent publication US20250339409A1, “USES OF PAN BET INHIBITORS” (VYNE THERAPEUTICS INC., priority 2021, published 2025).

Data set [1] concerns anti collagen antibodies induced arthritis (ACAIA). In words: ACAIA mice: hot plate withdrawal latency. Format: in vivo, Balb/c mice. How it is done: On days 0, 5 and 11 animals are placed on hot plate apparatus (53±1° C.) and the time until the first response is observed and recorded.
Data set [2] deals with right knee joint. Put plainly: Toxicity in dogs after intra-articular injection: mortality, pathology, knee joint histopathology (Mankin score). Format: in vivo. The settings on record: dog. From the text: The purpose of this study was to determine the maximum tolerated dose and potential toxicity of BETi1 when administered by intra-articular injection to Beagle dogs and to determine local and systemic toxicokinetic characteristics associated with treatment of Beagle dogs with BETi1 formulations.
16 Beagle dogs (8 males, 8 females) were assigned to four treatment groups to determine toxicity of BETi1 formulations following intra-articular injection.
The experimental groups are presented below: • Group 1: Control; 0 mg of BETi1/animal dose • Group 2: Low Dose; 7.5 mg of BETi1/animal dose • Group 3: Mid Dose; 75 mg of BETi1/animal dose • Group 4: High Dose; 150 mg of BETi1/animal dose […]
Several features were measured in treated dogs, including viability, clinical observation, body weight, food consumption, clinical pathology (hematology, coagulation, serum chemistry, urinalysis), toxicokinetics, and pathology.
For all animals from the study, representative samples of organs and all gross lesions and masses from all groups were removed from fixative, trimmed, processed, embedded in paraffin, sectioned, stained with hematoxylin and eosin, and examined microscopically. […] A modified Semi-Quantitative Mankin scoring system was used to in evaluation of right knee joint histopathology, as shown in Table 48 below: […]

For data set [3], the system named is bleomycin induced pulmonary fibrosis. In words: Bleomycin mice: lung histopathology (H & E, Masson's Trichrome), Hübner-modified Ashcroft score. Format: in vivo, C57BL/6 male mice. The settings on record: for mean score, Hübner-modified Ashcroft scale of 0-8: bleomycin. From the text:
Seven mice from each group are randomly submitted for histopathology analysis (Hematoxylin and eosin (H & E) and Masson's Trichrome (MT)). The lungs are trimmed as needed and processed overnight in a Citadel 1000 automated processor by Shandon Scientific. Post-processing, lungs are embedded in paraffin blocks and sectioned in the following fashion: several slides are generated with lung sections in the first 1 mm of tissue, middle portions of the tissue, and finally near the latter third of the tissue in order to glean histological alterations throughout the lung. Sections are cut at […] thickness with a rotary microtome. Several slides per lung (at each depth) are stained with a H & E stain (reagents from Fisher Scientific) and MT Stain (Sigma kit HT15).
Pathological alterations are evaluated by a pathologist in blind manner (both dosage and treatment programs are unknown to the pathologist). The subacute interstitial inflammation and Agonal Hemorrhage are evaluated mainly based on the H & E staining. Fibrotic modifications are assessed morphologically and semi-quantitatively graded according to the scale defined by Ashcroft and modified by Hübner. Three sections for each lung sample are stained with MT and scored on a scale of 0-8. The final score is expressed as a mean of individual scores observed across all microscopic fields. In order to quantify the distribution of pulmonary fibrosis, the Ashcroft scores are graded in 3 general classes of increasing values: ranging from 0-3 (mild), 4 (moderate) and ≥5 (severe).
Three sections for each lung sample were stained with H & E and Masson's Trichrome and scored on a Hübner-modified Ashcroft scale of 0-8. Three pictorial representations for each of groups 1-5 are shown in FIGS. 19A-E respectively (100×) and one representation for each of groups 1-5 is shown in FIGS. 19F-J (40×). Histology provides a picture or snapshot of the absence or presence of fibrosis. […] Other groups with higher concentrations of BETi also appeared to lessen bleomycin induced fibrosis but to a lesser degree.

Data set [4] in a line: Solubility of BETi1 in water (HPLC) and in solvents (visual observation). Format: physicochemical. The settings on record: sample of 0.04 mg/g (0.004%) in NaCMC/saline.

In the case of `Cn1cc(-c2cccc(O)c2Oc2ccccc2)c2cc[nH]c2c1=O` [BETi1], the “Hot Plate Change in withdrawal latency (Avg.)” value in data set [1] (0.01 mg/kg IA, Baseline) stood at 11.57 s; in data set [1] (0.01 mg/kg IA, Day 5), 11.86 s; in data set [1] (0.01 mg/kg IA, Day 11) it was 12.00 s; in data set [1] (0.1 mg/kg IA, Baseline), 11.14 s; in data set [1] (0.1 mg/kg IA, Day 5) it was 10.43 s; in data set [1] (0.1 mg/kg IA, Day 11) it was 9.57 s. For the same compound, the “Hot Plate Change in withdrawal latency (Avg.)” value is 11.71 s in data set [1] (1 mg/kg IA, Baseline); 11.57 s in data set [1] (1 mg/kg IA, Day 5); 11.29 s in data set [1] (1 mg/kg IA, Day 11); 10.57 s in data set [1] (10 mg/kg IA, Baseline); 12.00 s in data set [1] (10 mg/kg IA, Day 5); 11.00 s in data set [1] (10 mg/kg IA, Day 11). Besides, in data set [2] (intra-articular 7.5, 75, 150 mg, 28 days), the “tolerability, synovium findings” value was “overall well-tolerated”. Moreover, in data set [2] (intra-articular, 14-points scale), the “total Mankin score, right knee joint” value was “total Mankin score of zero except for one animal at 75 mg dose”. Also, the “Mean Histology Score (Hubner-modified Ashcroft)” value amounted to 3.00 in data set [3] (Group 3 Bleo/BETi1 0.06 mg/mL), 4.64 in data set [3] (Group 4 Bleo/BETi1 0.6 mg/mL) and 5.52 in data set [3] (Group 5 Bleo/BETi1 3 mg/mL). For the same compound, the “mean score, Hübner-modified Ashcroft scale of 0-8” value was 3.00 in data set [3] (0.06 mg/mL), 4.64 in data set [3] (0.6 mg/mL) and 5.52 in data set [3] (3 mg/mL). Besides, the “fraction of API in undissolved form” value in data set [4] is reported as “approximately 90%”.
